# Laboratory results as given in patent US20110262556A1, “SILVER/WATER, SILVER GELS AND SILVER-BASED COMPOSITIONS; AND METHODS FOR MAKING AND USING THE SAME” (AMERICAN SILVER, LLC, priority 2005, published 2011).
# Read-outs that look alike come from different tables or passages of the source.
# How the values were obtained:
# MRSA 1 = assay: Zone of inhibition, agar well; conditions: antibiotic amount (1-200 mcg)
# MRSA 2 = assay: Zone of inhibition, agar well; conditions: antibiotic amount (1-200 mcg)
# S. aureus ATCC 6538 P = assay: Zone of inhibition, agar well; conditions: antibiotic amount (1-200 mcg)
# S. pyogenes = assay: MIC/MBC broth microdilution; type: cell-based, Streptococcus pyogenes
# S. mutans = assay: MIC/MBC broth microdilution; type: cell-based, Streptococcus mutans
# S gordonii = assay: MIC/MBC broth microdilution; type: cell-based, Streptococcus gordonii
# S. pneumoniae = assay: MIC/MBC broth microdilution; type: cell-based
# S. faecalis = assay: MIC/MBC broth microdilution; type: cell-based, Streptococcus faecalis
# S. aureus = assay: MIC/MBC broth microdilution; type: cell-based, Staphylococcus aureus
# P. aeruginosa = assay: MIC/MBC broth microdilution; type: cell-based, Pseudomonas aeruginosa
# E. coli = assay: MIC/MBC broth microdilution; type: cell-based, Escherichia coli
# E. aerogenes = assay: MIC/MBC broth microdilution; type: cell-based, Enterobacter aerogenes
# E. cloacae = assay: MIC/MBC broth microdilution; type: cell-based
# S. typhimurium = assay: MIC/MBC broth microdilution; type: cell-based; conditions: S. typhimurium
# S arizona = assay: MIC/MBC broth microdilution; type: cell-based, Salmonella arizona
# S. boydii = assay: MIC/MBC broth microdilution; type: cell-based, Shigella boydii; conditions: S. boydii
# K. pneumoniae = assay: MIC/MBC broth microdilution; type: cell-based, Klebsiella pneumoniae
# E. coil = assay: Zone of inhibition, agar well; conditions: E.coli; antibiotic amount (5-200 mcg)
# S.typhi = assay: Zone of inhibition, agar well; conditions: antibiotic amount (5-200 mcg)
# K. oxytoca = assay: MIC/MBC broth microdilution; type: cell-based; conditions: K. oxytoca
# B. subtilis = assay: Zone of inhibition, agar well; conditions: antibiotic amount (1-200 mcg)
# [1] = test system: Escherichia coli MDR clinical isolate (stool); assay: Antibiotic sensitivity, Kirby Bauer; conditions: for Zone size (mm): E.c, Kirby-Bauer antibiotic disc; for resistance of isolate: gram-negative isolate E. coli
# [2] = test system: Pseudomonas aeruginosa MDR clinical isolate (sputum); assay: Antibiotic sensitivity, Kirby Bauer; conditions: for resistance of isolate: gram-negative isolate Pseudomonas
# [3] = test system: MRSA clinical isolate (pus); assay: Antibiotic sensitivity, Kirby Bauer
compound,measurement,setting,value
CCC[C@@H]1C[C@@H](C(=O)N[C@@H]([C@H]2O[C@H](SC)[C@H](O)[C@@H](O)[C@H]2O)[C@@H](C)O)N(C)C1 [Lincomycin],"zone of inhibition, antibiotics",MRSA 1,Clear
same,"zone of inhibition, antibiotics",MRSA 2,Clear
same,"zone of inhibition, antibiotics",S. aureus ATCC 6538 P,1Clear
CC1COc2c(N3CCN(C)CC3)c(F)cc3c(=O)c(C(=O)O)cn1c23 (stereo not shown) [Ofloxacin],MBC,"S. pyogenes; Streptococcus pyogenes, read-out: MBC",2.5 µg/mL
same,MIC,"S. pyogenes; Streptococcus pyogenes, read-out: MIC",1.25 µg/mL
same,MBC,"S. mutans; Streptococcus mutans, read-out: MBC",> 5 µg/mL
same,MIC,"S. mutans; Streptococcus mutans, read-out: MIC",2.5 µg/mL
same,MBC,"S gordonii; Streptococcus gordonii, read-out: MBC",5 µg/mL
same,MIC,"S gordonii; Streptococcus gordonii, read-out: MIC",2.5 µg/mL
same,MBC,"S. pneumoniae; Streptococcus pneumoniae, read-out: MBC",2.5 µg/mL
same,MIC,"S. pneumoniae; Streptococcus pneumoniae, read-out: MIC",2.5 µg/mL
same,MBC,"S. faecalis; Enterococcus faecalis, read-out: MBC",5 µg/mL
same,MIC,"S. faecalis; Enterococcus faecalis, read-out: MIC",1.25 µg/mL
same,MBC,"S. aureus; Staphylococcus aureus, read-out: MBC",0.625 µg/mL
same,MIC,"S. aureus; Staphylococcus aureus, read-out: MIC",0.417 µg/mL
same,MBC,"P. aeruginosa; Pseudomonas aeruginosa, read-out: MBC",0.313 µg/mL
same,MIC,"P. aeruginosa; Pseudomonas aeruginosa, read-out: MIC",0.156 µg/mL
same,MBC,"E. coli; Escherichia coli, read-out: MBC",0.156 µg/mL
same,MIC,"E. coli; Escherichia coli, read-out: MIC",0.104 µg/mL
same,MBC,E. aerogenes; Klebsiella aerogenes,0.156 µg/mL
same,MIC,E. aerogenes; Klebsiella aerogenes,0.078 µg/mL
same,MBC,E. cloacae; Enterobacter cloacae,0.156 µg/mL
same,MIC,"E. cloacae; Enterobacter cloacae, read-out: MIC",0.156 µg/mL
same,MBC,"S. typhimurium; Salmonella enterica, read-out: MBC",0.156 µg/mL
same,MIC,"S. typhimurium; Salmonella enterica, read-out: MIC",0.078 µg/mL
same,MBC,"S arizona; Salmonella, read-out: MBC",0.078 µg/mL
same,MIC,"S arizona; Salmonella, read-out: MIC",0.078 µg/mL
same,MBC,"S. boydii; Shigella boydii, read-out: MBC",0.156 µg/mL
same,MIC,"S. boydii; Shigella boydii, read-out: MIC",0.078 µg/mL
same,MBC,K. pneumoniae; Klebsiella pneumoniae,0.625 µg/mL
same,MIC,"K. pneumoniae; Klebsiella pneumoniae, read-out: MIC",0.417 µg/mL
same,"zone of inhibition, antibiotics",MRSA 1,15 mm
same,"zone of inhibition, antibiotics",MRSA 2,16 mm
CCn1cc(C(=O)O)c(=O)c2cc(F)c(N3CCN(C)CC3)cc21 [Peflofloxacin],"zone of inhibition, antibiotics",E. coil,Clear
same,"zone of inhibition, antibiotics",MRSA 1,11 mm
same,"zone of inhibition, antibiotics",MRSA 2,13 mm
same,"zone of inhibition, antibiotics",S. aureus ATCC 6538 P,30 mm
same,"zone of inhibition, antibiotics",S.typhi,clear
CC1(C)S[C@@H]2[C@H](NC(=O)Cc3ccccc3)C(=O)N2[C@H]1C(=O)O [Penicillin G],MIC,S. pyogenes,>5.0 ppm
same,MBC,S. mutans,> 5 ppm
same,MIC,S. mutans,0.521 ppm
same,MBC,S gordonii; S gordonii,0.039 ppm
same,MIC,S gordonii; S gordonii,0.009 ppm
same,MBC,S. pneumoniae,0.019/0.019 ppm
same,MIC,S. pneumoniae,0.019/0.019 ppm
same,MBC,S. faecalis,5.0/>5.0 ppm
same,MIC,S. faecalis,5.0/>5.0 ppm
same,MBC,S. aureus,> 5.0 ppm
same,MIC,S. aureus,2.5 ppm
same,MBC,P. aeruginosa,> 5.0 ppm
same,MIC,P. aeruginosa,0.13 ppm
same,MIC,E. coli,>5.0 ppm
same,MIC,E. aerogenes; E. aerogenes,>5.0 ppm
same,MIC,E. cloacae,>5.0 ppm
same,MIC,S. typhimurium,>5.0 ppm
same,MIC,S arizona,>5.0 ppm
same,MIC,S. boydii,>5.0 ppm
same,MIC,K. pneumoniae,>5.0 ppm
same,MIC,K. oxytoca,>5.0 ppm
CCN1CCN(C(=O)N[C@@H](C(=O)N[C@@H]2C(=O)N3[C@@H]2SC(C)(C)[C@@H]3C(=O)O)c2ccccc2)C(=O)C1=O [Piperacillin],"zone of inhibition, antibiotics",E. coil,22 mm
same,"zone of inhibition, antibiotics",S.typhi,16 mm
CC[C@H]1OC(=O)[C@H](C)[C@@H](O[C@H]2C[C@@](C)(OC)[C@@H](O)[C@H](C)O2)[C@H](C)[C@@H](O[C@@H]2O[C@H](C)C[C@H](N(C)C)[C@H]2O)[C@](C)(O)C[C@@H](C)/C(=N\OCOCCOC)[C@H](C)[C@@H](O)[C@]1(C)O [Roxythromycin],"zone of inhibition, antibiotics",B. subtilis,20 mm
same,"zone of inhibition, antibiotics",MRSA 1,1.0 mm
same,"zone of inhibition, antibiotics",MRSA 2,12 mm
same,"zone of inhibition, antibiotics",S. aureus ATCC 6538 P,Clear
CC(C)(O/N=C(\C(=O)N[C@@H]1C(=O)N2C(C(=O)[O-])=C(C[n+]3ccccc3)CS[C@H]12)c1csc(N)n1)C(=O)O [ceftazidime],Zone size (mm),[1],10 mm
same,resistance of isolate,[1],resistance
same,Zone size (mm),"[2]; Ps., Kirby-Bauer antibiotic disc",16 mm
same,resistance of isolate,[2],resistance
same,resistance of isolate,[3],resistant
NC[C@H]1O[C@H](O[C@H]2[C@H](O)[C@@H](O[C@H]3O[C@H](CO)[C@@H](O)[C@H](N)[C@H]3O)[C@H](N)C[C@@H]2N)[C@H](O)[C@@H](O)[C@@H]1O [kanamycin],Zone size (mm),[1],14 mm
CCn1cc(C(=O)O)c(=O)c2ccc(C)nc21 [nalidixic acid],resistance of isolate,[1],resistance
same,resistance of isolate,[2],resistance
